Measured values published in paper PMC8364686, “Safety, tolerability, pharmacokinetics and pharmacodynamics of single oral doses of BI 187004, an inhibitor of 11beta-hydroxysteroid dehydrogenase-1, in healthy male volunteers with overweight or obesity” (Clinical Diabetes and Endocrinology, 2021).

Assay: Plasma pharmacokinetics of BI 187004 after single oral doses (LC–MS/MS)
Conditions: male, human, plasma, po
[1] = 10 mg, Plasma concentration Mean, 10 mg single oral
[2] = 10 mg, Plasma concentration Median, 10 mg single oral
[3] = 10 mg, Plasma concentration gMean, 10 mg single oral

Procedure: This was a randomized, double-blind, placebo-controlled, single rising dose study conducted at a single center in Germany. […] Follow-up on an ambulatory basis was performed between 11 and 15 days after study drug administration. […] At the time of use the oral solution for dosing was prepared using the PFOS and a co-supplied aqueous solvent containing HP-beta-cyclodextrin 100 mg/mL. The lowest dose level solutions were prepared by further dilution of the lower concentration solution with additional solvent.
For each accepted run, the acceptance criteria for the calibration standards and quality controls were met.

For `N#Cc1ccc2c(c1)[C@H]1CCCN(C(=O)c3ccc4[nH]cnc4c3)[C@H]1C2` [BI 187004], the concentration at 24 h [1] was 0.0769 µM, the concentration at 36 h [1] was 0.0302 µM and the concentration at 48 h [1] was 0.0228 µM. The concentration at 72 h [1] was 0.0107 µM, the concentration at 96 h [1] was 0.00572 µM and the concentration at 0.5 h (10 mg, Plasma concentration Median, 10 mg single oral, 0.5 h) was 0.363 µM. For the same molecule, the concentration at 1 h (10 mg, Plasma concentration Median, 10 mg single oral, 1 h) was 0.413 µM, the concentration at 1.5 h (10 mg, Plasma concentration Median, 10 mg single oral, 1.5 h) was 0.435 µM and the concentration at 2 h (10 mg, Plasma concentration Median, 10 mg single oral, 2 h) was 0.396 µM. It also gave a concentration at 2.5 h (10 mg, Plasma concentration Median, 10 mg single oral, 2.5 h) of 0.381 µM, a concentration at 3 h (10 mg, Plasma concentration Median, 10 mg single oral, 3 h) of 0.334 µM and a concentration at 4 h (10 mg, Plasma concentration Median, 10 mg single oral, 4 h) of 0.368 µM. The concentration at 5 h (10 mg, Plasma concentration Median, 10 mg single oral, 5 h) was 0.272 µM, the concentration at 6 h (10 mg, Plasma concentration Median, 10 mg single oral, 6 h) was 0.243 µM and the concentration at 8 h (10 mg, Plasma concentration Median, 10 mg single oral, 8 h) was 0.217 µM. For the same molecule, the concentration at 10 h [2] was 0.179 µM, the concentration at 12 h [2] was 0.147 µM and the concentration at 24 h [2] was 0.08 µM. It also gave a concentration at 36 h [2] of 0.0296 µM, a concentration at 48 h [2] of 0.0224 µM and a concentration at 72 h [2] of 0.00936 µM. For the same molecule, the concentration at 96 h [2] was 0.00509 µM, the concentration at 0.5 h (10 mg, Plasma concentration gMean, 10 mg single oral, 0.5 h) was 0.279 µM and the concentration at 1 h (10 mg, Plasma concentration gMean, 10 mg single oral, 1 h) was 0.426 µM. It also gave a concentration at 1.5 h (10 mg, Plasma concentration gMean, 10 mg single oral, 1.5 h) of 0.435 µM, a concentration at 2 h (10 mg, Plasma concentration gMean, 10 mg single oral, 2 h) of 0.38 µM and a concentration at 2.5 h (10 mg, Plasma concentration gMean, 10 mg single oral, 2.5 h) of 0.372 µM. It also gave a concentration at 3 h (10 mg, Plasma concentration gMean, 10 mg single oral, 3 h) of 0.336 µM, a concentration at 4 h (10 mg, Plasma concentration gMean, 10 mg single oral, 4 h) of 0.34 µM and a concentration at 5 h (10 mg, Plasma concentration gMean, 10 mg single oral, 5 h) of 0.27 µM. It also gave a concentration at 6 h (10 mg, Plasma concentration gMean, 10 mg single oral, 6 h) of 0.254 µM, a concentration at 8 h (10 mg, Plasma concentration gMean, 10 mg single oral, 8 h) of 0.208 µM and a concentration at 10 h [3] of 0.174 µM. For the same molecule, the concentration at 12 h [3] was 0.14 µM, the concentration at 24 h [3] was 0.0713 µM and the concentration at 36 h [3] was 0.0263 µM. The concentration at 48 h [3] was 0.0205 µM, the concentration at 72 h [3] was 0.0102 µM and the concentration at 96 h [3] was 0.00548 µM. It also gave a concentration at 1 h (10 mg, Plasma concentration, individual subjects, 10 mg single oral, planned time 1 h) of 0.519 µM, a concentration at 1.5 h (10 mg, Plasma concentration, individual subjects, 10 mg single oral, planned time 1.5 h) of 0.537 µM and a concentration at 2 h (10 mg, Plasma concentration, individual subjects, 10 mg single oral, planned time 2 h) of 0.437 µM. The concentration at 2.5 h (10 mg, Plasma concentration, individual subjects, 10 mg single oral, planned time 2.5 h) was 0.442 µM, the concentration at 3 h (10 mg, Plasma concentration, individual subjects, 10 mg single oral, planned time 3 h) was 0.405 µM and the concentration at 4 h (10 mg, Plasma concentration, individual subjects, 10 mg single oral, planned time 4 h) was 0.412 µM. For the same molecule, the concentration at 5 h (10 mg, Plasma concentration, individual subjects, 10 mg single oral, planned time 5 h) was 0.352 µM, the concentration at 6 h (10 mg, Plasma concentration, individual subjects, 10 mg single oral, planned time 6 h) was 0.353 µM and the concentration at 8 h (10 mg, Plasma concentration, individual subjects, 10 mg single oral, planned time 8 h) was 0.241 µM. For the same molecule, the AUC(0-inf) (20 mg) was 12.4 µM·h, the AUC(0-t) (20 mg) was 9.45 µM·h and the Cmax (20 mg) was 1.03 µM. For the same molecule, the Tmax (20 mg) was 1.38 h, the Vd/F (20 mg) was 144 L and the half-life (20 mg) was 21.2 h. The concentration at 0.5 h (20 mg, BI 187004 plasma concentrations, 20 mg single oral, planned time 0.5 h, Max) was 1.05 µM, the concentration at 0.5 h (20 mg, BI 187004 plasma concentrations, 20 mg single oral, planned time 0.5 h, Mean) was 0.431 µM and the concentration at 0.5 h (20 mg, BI 187004 plasma concentrations, 20 mg single oral, planned time 0.5 h, Median) was 0.215 µM. The concentration at 0.5 h (20 mg, BI 187004 plasma concentrations, 20 mg single oral, planned time 0.5 h, Min) was 0.0343 µM, the concentration at 0.5 h (20 mg, BI 187004 plasma concentrations, 20 mg single oral, planned time 0.5 h, gMean) was 0.211 µM and the concentration at 1 h (20 mg, BI 187004 plasma concentrations, 20 mg single oral, planned time 1 h, Max) was 1.13 µM. For the same molecule, the concentration at 1 h (20 mg, BI 187004 plasma concentrations, 20 mg single oral, planned time 1 h, Mean) was 0.885 µM, the concentration at 1 h (20 mg, BI 187004 plasma concentrations, 20 mg single oral, planned time 1 h, Median) was 1.03 µM and the concentration at 1 h (20 mg, BI 187004 plasma concentrations, 20 mg single oral, planned time 1 h, Min) was 0.236 µM. It also gave a concentration at 1 h (20 mg, BI 187004 plasma concentrations, 20 mg single oral, planned time 1 h, gMean) of 0.788 µM, a concentration at 1.5 h (20 mg, BI 187004 plasma concentrations, 20 mg single oral, planned time 1.5 h, Max) of 1.21 µM and a concentration at 1.5 h (20 mg, BI 187004 plasma concentrations, 20 mg single oral, planned time 1.5 h, Mean) of 0.969 µM. It also gave a concentration at 1.5 h (20 mg, BI 187004 plasma concentrations, 20 mg single oral, planned time 1.5 h, Median) of 0.944 µM, a concentration at 1.5 h (20 mg, BI 187004 plasma concentrations, 20 mg single oral, planned time 1.5 h, Min) of 0.824 µM and a concentration at 1.5 h (20 mg, BI 187004 plasma concentrations, 20 mg single oral, planned time 1.5 h, gMean) of 0.96 µM. For the same molecule, the concentration at 1.5 h (20 mg, BI 187004 plasma concentrations, 20 mg single oral, planned time 1.5 h, individual subjects) was 1.21 µM, the concentration at 2 h (20 mg, BI 187004 plasma concentrations, 20 mg single oral, planned time 2 h, Max) was 1.1 µM and the concentration at 2 h (20 mg, BI 187004 plasma concentrations, 20 mg single oral, planned time 2 h, Mean) was 0.877 µM. It also gave a concentration at 2 h (20 mg, BI 187004 plasma concentrations, 20 mg single oral, planned time 2 h, Median) of 0.89 µM, a concentration at 2 h (20 mg, BI 187004 plasma concentrations, 20 mg single oral, planned time 2 h, Min) of 0.63 µM and a concentration at 2 h (20 mg, BI 187004 plasma concentrations, 20 mg single oral, planned time 2 h, gMean) of 0.863 µM. The concentration at 2 h (20 mg, BI 187004 plasma concentrations, 20 mg single oral, planned time 2 h, individual subjects) was 1.1 µM, the concentration at 2.5 h (20 mg, BI 187004 plasma concentrations, 20 mg single oral, planned time 2.5 h, Max) was 1.06 µM and the concentration at 2.5 h (20 mg, BI 187004 plasma concentrations, 20 mg single oral, planned time 2.5 h, Mean) was 0.86 µM. The concentration at 2.5 h (20 mg, BI 187004 plasma concentrations, 20 mg single oral, planned time 2.5 h, Median) was 0.866 µM, the concentration at 2.5 h (20 mg, BI 187004 plasma concentrations, 20 mg single oral, planned time 2.5 h, Min) was 0.619 µM and the concentration at 2.5 h (20 mg, BI 187004 plasma concentrations, 20 mg single oral, planned time 2.5 h, gMean) was 0.843 µM. For the same molecule, the concentration at 2.5 h (20 mg, BI 187004 plasma concentrations, 20 mg single oral, planned time 2.5 h, individual subjects) was 1.06 µM, the concentration at 3 h (20 mg, BI 187004 plasma concentrations, 20 mg single oral, planned time 3 h, Max) was 0.945 µM and the concentration at 3 h (20 mg, BI 187004 plasma concentrations, 20 mg single oral, planned time 3 h, Mean) was 0.76 µM. For the same molecule, the concentration at 3 h (20 mg, BI 187004 plasma concentrations, 20 mg single oral, planned time 3 h, Median) was 0.77 µM, the concentration at 3 h (20 mg, BI 187004 plasma concentrations, 20 mg single oral, planned time 3 h, Min) was 0.586 µM and the concentration at 3 h (20 mg, BI 187004 plasma concentrations, 20 mg single oral, planned time 3 h, gMean) was 0.746 µM. It also gave a concentration at 3 h (20 mg, BI 187004 plasma concentrations, 20 mg single oral, planned time 3 h, individual subjects) of 0.945 µM, a concentration at 4 h (20 mg, BI 187004 plasma concentrations, 20 mg single oral, planned time 4 h, Max) of 0.896 µM and a concentration at 4 h (20 mg, BI 187004 plasma concentrations, 20 mg single oral, planned time 4 h, Mean) of 0.724 µM. It also gave a concentration at 4 h (20 mg, BI 187004 plasma concentrations, 20 mg single oral, planned time 4 h, Median) of 0.748 µM, a concentration at 4 h (20 mg, BI 187004 plasma concentrations, 20 mg single oral, planned time 4 h, Min) of 0.531 µM and a concentration at 4 h (20 mg, BI 187004 plasma concentrations, 20 mg single oral, planned time 4 h, gMean) of 0.707 µM. The concentration at 4 h (20 mg, BI 187004 plasma concentrations, 20 mg single oral, planned time 4 h, individual subjects) was 0.896 µM, the concentration at 5 h (20 mg, BI 187004 plasma concentrations, 20 mg single oral, planned time 5 h, Max) was 0.883 µM and the concentration at 5 h (20 mg, BI 187004 plasma concentrations, 20 mg single oral, planned time 5 h, Mean) was 0.653 µM. It also gave a concentration at 5 h (20 mg, BI 187004 plasma concentrations, 20 mg single oral, planned time 5 h, Median) of 0.644 µM, a concentration at 5 h (20 mg, BI 187004 plasma concentrations, 20 mg single oral, planned time 5 h, Min) of 0.463 µM and a concentration at 5 h (20 mg, BI 187004 plasma concentrations, 20 mg single oral, planned time 5 h, gMean) of 0.634 µM. The concentration at 5 h (20 mg, BI 187004 plasma concentrations, 20 mg single oral, planned time 5 h, individual subjects) was 0.773 µM, the concentration at 6 h (20 mg, BI 187004 plasma concentrations, 20 mg single oral, planned time 6 h, Max) was 0.847 µM and the concentration at 6 h (20 mg, BI 187004 plasma concentrations, 20 mg single oral, planned time 6 h, Mean) was 0.566 µM. The concentration at 6 h (20 mg, BI 187004 plasma concentrations, 20 mg single oral, planned time 6 h, Median) was 0.529 µM and the concentration at 6 h (20 mg, BI 187004 plasma concentrations, 20 mg single oral, planned time 6 h, Min) was 0.42 µM.
